This is an account of results in patent US20110230477A1, “COMPOUNDS, PHARMACEUTICAL COMPOSITION AND METHODS FOR USE IN TREATING METABOLIC DISORDERS” (Euroscreen S.A., priority 2008, published 2011).

In the experiment the target is T1, human GPR43 receptor (hGPR43) (Homo sapiens, UniProt O15552).
T1 construct: expressed in transfected cells
T1 sequence (O15552 1-330): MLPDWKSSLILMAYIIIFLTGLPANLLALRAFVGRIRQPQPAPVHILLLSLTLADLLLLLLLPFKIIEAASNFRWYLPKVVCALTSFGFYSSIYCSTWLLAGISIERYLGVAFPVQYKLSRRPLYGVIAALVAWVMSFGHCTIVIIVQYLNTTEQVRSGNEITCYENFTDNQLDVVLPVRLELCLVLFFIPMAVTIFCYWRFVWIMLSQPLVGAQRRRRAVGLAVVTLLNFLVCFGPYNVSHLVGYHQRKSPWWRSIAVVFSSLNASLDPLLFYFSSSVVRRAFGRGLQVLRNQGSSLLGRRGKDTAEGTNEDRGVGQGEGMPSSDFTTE
Nature of the experiment: GTPγS binding assay (SPA method). In kind it is biochemical. The note with it: membranes expressing hGPR43; assay performed in the presence of SCFA; read-out: EC50 (nM) in GTPγ35S assay. An excerpt:
The following assay can be used for determination of GPR43 activation. When a GPCR is in its active state, either as a result of ligand binding or constitutive activation, the receptor couples to a G protein and stimulates the release of GDP and subsequent binding of GTP to the G protein. The alpha subunit of the G protein-receptor complex acts as a GTPase and slowly hydrolyses the GTP to GDP, at which point the receptor normally is deactivated. Activated receptors continue to exchange GDP for GTP. […] The assay uses the ability of GPCR to stimulate [^35S]GTPγS binding to membranes expressing the relevant receptors. The assay can, therefore, be used in the direct identification method to screen candidate compounds to endogenous or not endogenous GPCR.
Membrane extracts were prepared from cells expressing the human GPR43 receptor (hGPR43) as follows: the medium was aspirated and the cells were scraped from the plates in Ca^++ and Mg^++-free Phosphate-buffered saline (PBS). The cells were then centrifuged for 3 min at 1500 g and the pellets were resuspended in buffer A (15 mM Tris-HCl pH 7.5, 2 mM MgCl2, 0.3 mM EDTA, 1 mM EGTA) and homogenized in a glass homogenizer. […] Protein content was assayed by the Folin method.
The assay was performed in the presence of SCFA, and was used to determine the activity of the compounds of the invention.
The [^35S]GTPγS assay was incubated in 20 mM HEPES pH7.4, 100 mM NaCl, 10 μg/ml saponin, 30 mM of MgCl2, 10 μM of GDP, 5 μg membrane-expressing hGPR43, 250 μg of wheatgerm agglutinin beads (Amersham, ref: RPNQ001), a range concentration of compounds (from 30 μM to 1 nM) in a final volume of 100 μl for 30 min at room temperature. The SCFA propionate was used at 1 mM final concentration as positive control. The plates were then centrifuged for 10 minutes at 2000 rpm, incubated for 2 hours at room temperature and counted for 1 min in a scintillation counter (TopCount, PerkinElmer).

The structures appear in SMILES notation.

Usually EC50 stands for the concentration needed to bring the measured effect to its halfway point. On to `O=C(O)C[C@@H](Cc1ccccc1)C(=O)N(CCCO)c1nc(-c2ccccc2Cl)cs1` [Compound 156, (R)-3-benzyl-4-((4-(2-chlorophenyl)thiazol-2-yl)(3-hydroxypropyl)amino)-4-oxobutanoic acid], for which the EC50 is 867 nM.

In the case of `C=CCN(C(=O)[C@@H](CC(=O)O)Cc1ccccc1)c1nc(-c2ccccc2Cl)cs1` [Compound 22, (R)-4-(allyl(4-(2-chlorophenyl)thiazol-2-yl)amino)-3-benzyl-4-oxobutanoic acid], the 50% effective concentration (EC50) turned out to be 365 nM.

For `CN(C(=O)[C@@H](CC(=O)O)Cc1ccccc1)c1nc(-c2ccccc2-c2ccc(C#N)cc2)cs1` [Compound 206, (R)-3-benzyl-4-((4-(4′-cyano-[1,1′-biphenyl]-2-yl)thiazol-2-yl)(methyl)amino)-4-oxobutanoic acid], the EC50 amounted to 2320 nM.

Consider `CN(C(=O)C(CC(=O)O)Cc1cscn1)c1nc(-c2ccccc2Cl)cs1` (stereo not shown) [Compound 114, 4-((4-(2-chlorophenyl)thiazol-2-yl)(methyl)amino)-4-oxo-3-(thiazol-4-ylmethyl)butanoic acid], for which the EC50 was 539 nM.

Regarding `CN1CCOc2cc(-c3ccccc3-c3csc(N(C)C(=O)[C@@H](CC(=O)O)Cc4ccccc4)n3)cnc21` [Compound 182, (R)-3-benzyl-4-(methyl(4-(2-(4-methyl-3,4-dihydro-2H-pyrido[3,2-b][1,4]oxazin-7-yl)phenyl)thiazol-2-yl)amino)-4-oxobutanoic acid], the EC50 came to 92 nM.

On to `O=C(O)C[C@@H](Cc1ccccc1)C(=O)Nc1nc(-c2ccccc2Cl)cs1` [Compound 2, (R)-3-benzyl-4-(4-(2-chlorophenyl)thiazol-2-ylamino)-4-oxobutanoic acid], for which the EC50 amounted to 273 nM.

With `COc1ccc(CC(CC(=O)O)C(=O)N(C)c2nc(-c3ccccc3Cl)cs2)cc1` (stereo not shown) [Compound 99, 4-((4-(2-chlorophenyl)thiazol-2-yl)(methyl)amino)-3-(4-methoxybenzyl)-4-oxobutanoic acid], the EC50 stood at 567 nM.

In the case of `CN(C(=O)[C@@H](CC(=O)O)Cc1ccccc1)c1nc(-c2ccccc2-c2ccc(OCc3ccccc3)nc2)cs1` [Compound 158, (R)-3-benzyl-4-((4-(2-(6-(benzyloxy)pyridin-3-yl)phenyl)thiazol-2-yl)(methyl)amino)-4-oxobutanoic acid], the EC50 is 49 nM.

For the compound `O=C(O)C[C@@H](Cc1ccccc1)C(=O)N(c1nc(-c2cc(C(F)(F)F)ccc2Cl)cs1)C1CC1` [Compound 191, (R)-3-benzyl-4-((4-(2-chloro-5-(trifluoromethyl)phenyl)thiazol-2-yl)(cyclopropyl)amino)-4-oxobutanoic acid], the EC50 came to 37 nM.

`Cc1ccc(-c2csc(NC(=O)[C@@H](CC(=O)O)Cc3ccccc3)n2)o1` [Compound 202, (R)-3-benzyl-4-((4-(5-methylfuran-2-yl)thiazol-2-yl)amino)-4-oxobutanoic acid]: the half-maximal effective concentration (EC50) is 1510 nM.

`O=C(O)C[C@@H](Cc1ccccc1)C(=O)Nc1nc(-c2ccc(Cl)c(Cl)c2)cs1` [Compound 5, (R)-3-benzyl-4-(4-(3,4-dichlorophenyl)thiazol-2-ylamino)-4-oxobutanoic acid]: the EC50 was 292 nM.

In the case of `Cc1cc(-c2csc(NC(=O)[C@@H](CC(=O)O)Cc3ccccc3)n2)c(C)s1` [Compound 102, (R)-3-benzyl-4-(4-(2,5-dimethylthiophen-3-yl)thiazol-2-ylamino)-4-oxobutanoic acid], the EC50 turned out to be 442 nM.

On to `CN1CCOc2cc(-c3ccccc3-c3csc(N(C(=O)[C@@H](CC(=O)O)CC4CCCC4)C4CC4)n3)cnc21` [Compound 194, (R)-3-(cyclopentylmethyl)-4-(cyclopropyl(4-(2-(4-methyl-3,4-dihydro-2H-pyrido[3,2-b][1,4]oxazin-7-yl)phenyl)thiazol-2-yl)amino)-4-oxobutanoic acid], for which the EC50 amounted to 30 nM.

Turning to `O=C(O)C[C@@H](Cc1ccc(F)cc1)C(=O)Nc1nc(-c2ccccc2Cl)cs1` [Compound 17, (R)-4-(4-(2-chlorophenyl)thiazol-2-ylamino)-3-(4-fluorobenzyl)-4-oxobutanoic acid], the EC50 was 643 nM.

Turning to `CN(C)c1ccc(-c2ccccc2-c2csc(N(C)C(=O)[C@@H](CC(=O)O)Cc3ccccc3)n2)cn1` [Compound 115, (R)-3-benzyl-4-((4-(2-(6-(dimethylamino)pyridin-3-yl)phenyl)thiazol-2-yl)(methyl)amino)-4-oxobutanoic acid], the EC50 came to 72 nM.

On to `CN(C(=O)[C@@H](CC(=O)O)Cc1ccccc1)c1nc(-c2ccccc2C#N)cs1` [Compound 91, (R)-3-benzyl-4-((4-(2-cyanophenyl)thiazol-2-yl)(methyl)amino)-4-oxobutanoic acid], for which the EC50 worked out at 354 nM.

Take `C[C@H](c1ccccc1)[C@@H](CC(=O)O)C(=O)N(C)c1nc(-c2ccccc2Cl)cs1` [Compound 195, (3R,4S)-3-((4-(2-chlorophenyl)thiazol-2-yl)(methyl)carbamoyl)-4-phenylpentanoic acid]: the EC50 turned out to be 2170 nM.

Consider `CN(C(=O)[C@@H](CC(=O)O)CC1CCOCC1)c1nc(-c2cc(Cl)ccc2Cl)cs1` [Compound 168, (R)-4-((4-(2,5-dichlorophenyl)thiazol-2-yl)(methyl)amino)-4-oxo-3-((tetrahydro-2H-pyran-4-yl)methyl)butanoic acid], for which the EC50 turned out to be 43 nM.

For `O=C(O)C[C@@H](Cc1ccccc1)C(=O)Nc1nc(-c2ccccc2F)cs1` [Compound 4, (R)-3-benzyl-4-(4-(2-fluorophenyl)thiazol-2-ylamino)-4-oxobutanoic acid], the EC50 worked out at 759 nM.

For `COc1ccc(-c2ccccc2-c2csc(N(C)C(=O)[C@@H](CC(=O)O)Cc3ccccc3)n2)cn1` [Compound 116, (R)-3-benzyl-4-((4-(2-(6-methoxypyridin-3-yl)phenyl)thiazol-2-yl)(methyl)amino)-4-oxobutanoic acid], the EC50 amounted to 175 nM.

Turning to `COc1ccc(-c2ccc(Cl)c(-c3csc(N(C)C(=O)[C@@H](CC(=O)O)Cc4ccccc4)n3)c2)cn1` [Compound 177, (R)-3-benzyl-4-((4-(2-chloro-5-(6-methoxypyridin-3-yl)phenyl)thiazol-2-yl)(methyl)amino)-4-oxobutanoic acid], the EC50 was determined as 127 nM.

Consider `COc1ccc(-c2ccccc2-c2csc(N(C(=O)[C@@H](CC(=O)O)Cc3ccccc3)C3CC3)n2)cn1` [Compound 178, (R)-3-benzyl-4-(cyclopropyl(4-(2-(6-methoxypyridin-3-yl)phenyl)thiazol-2-yl)amino)-4-oxobutanoic acid], for which the EC50 came to 30 nM.

On to `CN(C)c1ccc(-c2ccccc2-c2csc(N(C(=O)[C@@H](CC(=O)O)CC3CCCC3)C3CC3)n2)cn1` [Compound 218, (R)-3-(cyclopentylmethyl)-4-(cyclopropyl(4-(2-(6-(dimethylamino)pyridin-3-yl)phenyl)thiazol-2-yl)amino)-4-oxobutanoic acid], for which the EC50 was 32 nM.

As to `CC(C)[C@H](CC(=O)O)C(=O)N(C)c1nc(-c2ccccc2Cl)cs1` [Compound 94, (S)-3-((4-(2-chlorophenyl)thiazol-2-yl)(methyl)carbamoyl)-4-methylpentanoic acid], the EC50 turned out to be 200 nM.

As to `COC(=O)CN(C(=O)[C@@H](CC(=O)O)Cc1ccccc1)c1nc(-c2ccccc2Cl)cs1` [Compound 23, (R)-3-benzyl-4-((4-(2-chlorophenyl)thiazol-2-yl)(2-methoxy-2-oxoethyl)amino)-4-oxobutanoic acid], the EC50 was determined as 327 nM.

On to `O=C(O)C[C@@H](Cc1ccccc1)C(=O)Nc1nc(-c2cc(Cl)sc2Cl)cs1` [Compound 112, (R)-3-benzyl-4-(4-(2,5-dichlorothiophen-3-yl)thiazol-2-ylamino)-4-oxobutanoic acid], for which the EC50 was 538 nM.

As to `CC(C)C[C@H](CC(=O)O)C(=O)Nc1nc(-c2ccccc2Cl)cs1` [Compound 19, (R)-3-(4-(2-chlorophenyl)thiazol-2-ylcarbamoyl)-5-methylhexanoic acid], the half-maximal effective concentration (EC50) was found to be 322 nM.

In the case of `C[C@@H](O)CN(C(=O)[C@@H](CC(=O)O)Cc1ccccc1)c1nc(-c2ccccc2Cl)cs1` [Compound 246, (R)-3-benzyl-4-((4-(2-chlorophenyl)thiazol-2-yl)((R)-2-hydroxypropyl)amino)-4-oxobutanoic acid], the EC50 came to 628 nM.
